Experimental data as given in patent publication US8106052B2, “Luminescence-based methods and probes for measuring cytochrome P450 activity” (Promega Corporation, priority 2002, dated 2012).
Read-outs that look alike come from different tables or passages of the source.

Test system: pooled human liver microsomes
Test: Pooled human liver microsomes in two-step luminescent CYP450 reaction
Conditions: for Effect on activity against Luc BE: substrate Luc BE, ketoconazole 100 micromolar
Method: FIG. 8. Pooled human liver microsomes in two-step luminescent CYP450 reactions. D-luciferin derivatives were incubated in a CYP450 reaction mix with pooled human liver microsomes for 60 minutes at 37° C. before combining with a luciferase reaction mixture. For controls liver microsomes were replaced with control (no CYP450) Sf9 cell membranes. Luminescence was read within 12 minutes of combining the reactions on a Berthold Orion luminometer. […] Values labeled “nt” are vehicle controls.
In this Example, a procedure for a two-step CYP450/luciferase assay is provided. Luciferin derivatives were evaluated as P450 substrates and luciferase pro-substrates using this procedure. 20 microliter CYP450 reactions were prepared at pH 7.4 in an amount of KPO4 buffer that is optimal for a given CYP450 isoform (100 mM for CYP1A1, CYP1A2, CYP2B6, CYP2D6 and CYP2E1; 50 mM for CYP2C8 and CYP2C19; 25 mM for 2C9 and for pooled human liver microsomes; 200 mM for CYP3A4). For CYP2A6 100 mM Tris at pH 7.5 was substituted for KPO4. […] Reactions were initiated by addition of 0.4 pmoles recombinant human CYP450 co-expressed with CYP450 reductase in Sf9 cell microsomal membranes or 4 microgram pooled human liver microsomes and incubation at 37° C. After an initial incubation period at 37° C. 20 microliter CYP450 reactions were mixed with an 80 microliter luciferase reaction mix. […] Assays were also performed using 50 microliter CYP450 and luciferase reaction volumes (e.g., FIG. 3, panel B, table 3). Light output was measured immediately in a Turner Reporter, Turner 20/20 or Berthold Orion luminometer. Because the calibration of instruments from different manufacturers varies the quantitation of light output is instrument-specific and direct comparisons between instruments cannot be made.

[1] = alpha-naphthoflavone 10 micromolar

Nc1ccc(S(=O)(=O)Nc2ccnn2-c2ccccc2)cc1 [Sulfaphenazole, sulfaphenazole]
Inhibition of light output with H-Luc: near complete inhibition

CC(=O)N1CCN(c2ccc(OCC3COC(Cn4ccnc4)(c4ccc(Cl)cc4Cl)O3)cc2)CC1 (centres unmarked) [Ketoconazole, ketoconazole]
Inhibition of light output with H-Luc (substrate H-Luc, sulfaphenazole and ketoconazole 100 micromolar): Partial inhibition
Effect on activity against Luc BE [1]: Inhibition

O=c1cc(-c2ccccc2)oc2c1ccc1ccccc12 [Alpha-Naphpthoflavone, alpha-naphthoflavone]
Effect on activity against Luc BE [1]: slight stimulation
Inhibition of microsomal light output (substrates H-Luc, Luc ME, Luc EE, Luc BE, alpha-naphthoflavone 10 micromolar): lack of inhibition
